According to patent US9028858B2 (Coloplast A/S, priority 2003, dated 2015):
Where two headings read alike, the source gives them in different places.

Assays:
[1] = Protocol: The pH value of the latter solution was adjusted to 5.5 with 1 M NaOH. 10.0 mL aliquots of each of the two solutions were taken out and placed in 50 mL brown PE-containers.
The samples were β-irradiation at Risø National Laboratory. The samples were measured before irradiation, immediately after irradiation and after 2 and 4 weeks storage at 60° C. (triple determination).

[2] = Effect of buffer (citrate) in swelling medium on degradation of H2O2; conditions: no stabilizer
[3] = tested on: 7 different bacterial strains; conditions: for bacterial survival rate, Mean: exposed 60 min.; for surviving bacteria, Mean (% of control): 1% hydrogen peroxide
[4] = Various stabilizers: degradation of H2O2 at pH 4, 5.5 and 7; conditions: no stabilizer, 25 mM citric acid, approx. 1% H2O2
Protocol: Therefore the investigation of the influence of the pH-value on the stability in our system was included in the study.
24 different kinds of swelling media containing different stabilizers (one without stabilizer) and 3 different pH-values (pH 4, 5.5 and 7) were prepared. […] The concentration of sodium chloride in each of these three swelling media was 0.7% (w/w). Sodium chloride was tested because it could be used as an osmolality increasing agent. […] Two different kinds of material for the stick-pack were used, one with “peel” and one with “non-peel”. […] The irradiation dose was 2*26 kGy.
The stick-pack with “peel” was a laminated material consisting of PETP (12 μm), aluminium (9 μm) and polyethylene peel (polyethylene+10% polybutylene) (70 μm). […] The stick-packs were made out of a stamped area of 13×35 mm that was welded in the longitudinal direction by 1×3 units on a welder. It was welded by 2×2.2 units across in one end of the stick-pack, and in the other end by 4.0 bar, 130° C. and 3.5 s (breakable seal).
The stick-packs were stored for stability testing at 23° C. and 40° C. Samples were taken out after irradiation and after 2 and 4 weeks at 40° C. and 8 and 16 weeks at 23° C.

In the case of OO [Std H2O2, hydrogen peroxide], the “Concentration of H2O2 (%-point)” value ([1]; Series I, catheter swelled in a solution of PVP, 0 kGy, 1 week at 60° C.) is reported as 0.97 %-point, the “Concentration of H2O2 (%-point)” value ([1]; Series I, catheter swelled in a solution of PVP, 0 kGy, 2 weeks at 60° C.) is reported as 0.87 %-point and the “Concentration of H2O2 (%-point)” value ([1]; Series I, catheter swelled in a solution of PVP, 0 kGy, after irradiation) is reported as 1.00 %-point. The “Concentration of H2O2 (%-point)” value ([1]; Series I, catheter swelled in a solution of PVP, 25 kGy, 1 week at 60° C.) was 0.79 %-point, the “Concentration of H2O2 (%-point)” value ([1]; Series I, catheter swelled in a solution of PVP, 25 kGy, 2 weeks at 60° C.) was 0.70 %-point and the “Concentration of H2O2 (%-point)” value ([1]; Series I, catheter swelled in a solution of PVP, 25 kGy, after irradiation) was 0.85 %-point. The “Concentration of H2O2 (%-point)” value ([1]; Series I, catheter swelled in a solution of PVP, 50 kGy, 1 week at 60° C.) was 0.58 %-point, the “Concentration of H2O2 (%-point)” value ([1]; Series I, catheter swelled in a solution of PVP, 50 kGy, 2 weeks at 60° C.) was 0.46 %-point and the “Concentration of H2O2 (%-point)” value ([1]; Series I, catheter swelled in a solution of PVP, 50 kGy, after irradiation) was 0.73 %-point. For the same molecule, the “Concentration of H2O2 (%-point)” value ([1]; Series I, catheter swelled in a solution of PVP, 75 kGy, 1 week at 60° C.) was 0.37 %-point, the “Concentration of H2O2 (%-point)” value ([1]; Series I, catheter swelled in a solution of PVP, 75 kGy, 2 weeks at 60° C.) was 0.26 %-point and the “Concentration of H2O2 (%-point)” value ([1]; Series I, catheter swelled in a solution of PVP, 75 kGy, after irradiation) was 0.57 %-point. The “Concentration of H2O2 (%-point)” value ([1]; Series II, catheter swelled in distilled water, 0 kGy, 1 week at 60° C.) was 0.98 %-point, the “Concentration of H2O2 (%-point)” value ([1]; Series II, catheter swelled in distilled water, 0 kGy, 2 weeks at 60° C.) was 0.92 %-point and the “Concentration of H2O2 (%-point)” value ([1]; Series II, catheter swelled in distilled water, 0 kGy, after irradiation) was 1.00 %-point. For the same molecule, the “Concentration of H2O2 (%-point)” value ([1]; Series II, catheter swelled in distilled water, 25 kGy, 1 week at 60° C.) was 0.91 %-point, the “Concentration of H2O2 (%-point)” value ([1]; Series II, catheter swelled in distilled water, 25 kGy, 2 weeks at 60° C.) was 0.85 %-point and the “Concentration of H2O2 (%-point)” value ([1]; Series II, catheter swelled in distilled water, 25 kGy, after irradiation) was 0.93 %-point. The “Concentration of H2O2 (%-point)” value ([1]; Series II, catheter swelled in distilled water, 50 kGy, 1 week at 60° C.) was 0.81 %-point, the “Concentration of H2O2 (%-point)” value ([1]; Series II, catheter swelled in distilled water, 50 kGy, 2 weeks at 60° C.) was 0.75 %-point and the “Concentration of H2O2 (%-point)” value ([1]; Series II, catheter swelled in distilled water, 50 kGy, after irradiation) was 0.87 %-point. For the same molecule, the “Concentration of H2O2 (%-point)” value ([1]; Series II, catheter swelled in distilled water, 75 kGy, 1 week at 60° C.) was 0.74 %-point, the “Concentration of H2O2 (%-point)” value ([1]; Series II, catheter swelled in distilled water, 75 kGy, 2 weeks at 60° C.) was 0.66 %-point and the “Concentration of H2O2 (%-point)” value ([1]; Series II, catheter swelled in distilled water, 75 kGy, after irradiation) was 0.81 %-point. The “Concentration of H2O2 (%-point)” value ([1]; Series III, H2O2-solution in distilled water, 0 kGy, 1 week at 60° C.) was 0.87 %-point, the “Concentration of H2O2 (%-point)” value ([1]; Series III, H2O2-solution in distilled water, 0 kGy, 2 weeks at 60° C.) was 0.76 %-point and the “Concentration of H2O2 (%-point)” value ([1]; Series III, H2O2-solution in distilled water, 0 kGy, after irradiation) was 1.00 %-point. The “Concentration of H2O2 (%-point)” value ([1]; Series III, H2O2-solution in distilled water, 25 kGy, 1 week at 60° C.) was 0.91 %-point, the “Concentration of H2O2 (%-point)” value ([1]; Series III, H2O2-solution in distilled water, 25 kGy, 2 weeks at 60° C.) was 0.88 %-point and the “Concentration of H2O2 (%-point)” value ([1]; Series III, H2O2-solution in distilled water, 25 kGy, after irradiation) was 0.95 %-point. The “Concentration of H2O2 (%-point)” value ([1]; Series III, H2O2-solution in distilled water, 50 kGy, 1 week at 60° C.) was 0.84 %-point, the “Concentration of H2O2 (%-point)” value ([1]; Series III, H2O2-solution in distilled water, 50 kGy, 2 weeks at 60° C.) was 0.85 %-point and the “Concentration of H2O2 (%-point)” value ([1]; Series III, H2O2-solution in distilled water, 50 kGy, after irradiation) was 0.92 %-point. For the same molecule, the “Concentration of H2O2 (%-point)” value ([1]; Series III, H2O2-solution in distilled water, 75 kGy, 1 week at 60° C.) was 0.79 %-point, the “Concentration of H2O2 (%-point)” value ([1]; Series III, H2O2-solution in distilled water, 75 kGy, 2 weeks at 60° C.) was 0.77 %-point and the “Concentration of H2O2 (%-point)” value ([1]; Series III, H2O2-solution in distilled water, 75 kGy, after irradiation) was 0.89 %-point. The “Calculated degraded amount of H2O2 (%) after 2 years storage at 23° C.” value (“Calculated degraded amount of H2O2 (%)” below) ([2]; 0 mM citrate, pH 5.5) was 22.4%, the “Calculated degraded amount of H2O2 (%)” value ([2]; 0 mM citrate, pH 7) was 60.2% and the “Calculated degraded amount of H2O2 (%)” value ([2]; 10 mM citrate, pH 4) was 47.6%. The “Calculated degraded amount of H2O2 (%)” value ([2]; 10 mM citrate, pH 5.5) was 63.0%, the “Calculated degraded amount of H2O2 (%)” value ([2]; 10 mM citrate, pH 7) was 277.1% and the “Calculated degraded amount of H2O2 (%)” value ([2]; 25 mM citrate, pH 5.5) was 74.2%. For the same molecule, the “Calculated degraded amount of H2O2 (%)” value ([2]; 25 mM citrate, pH 7) was 201.5%, the “bacterial survival rate, Mean” value ([3]; 0.016% hydrogen peroxide) was 49.8 and the “bacterial survival rate, Mean” value ([3]; 0.031% hydrogen peroxide) was 38.1. The “bacterial survival rate, Mean” value ([3]; 0.063% hydrogen peroxide) was 27.8, the “bacterial survival rate, Mean” value ([3]; 0.125% hydrogen peroxide) was 14.5 and the “bacterial survival rate, Mean” value ([3]; 0.250% hydrogen peroxide) was 9.1. The “bacterial survival rate, Mean” value ([3]; 0.500% hydrogen peroxide) was 0.2, the “bacterial survival rate, Mean” value ([3]; 1.000% hydrogen peroxide) was 0.0 and the “surviving bacteria, Mean (% of control)” value ([3]; exposure time 5 min) was 37 % of control. The “surviving bacteria, Mean (% of control)” value ([3]; exposure time 10 min) was 17 % of control, the “surviving bacteria, Mean (% of control)” value ([3]; exposure time 15 min) was 6 % of control and the “calculated amount of degraded H2O2 after 2 years of storage at 23° C.” value ([4]; pH 4) was 15.7%. The “calculated amount of degraded H2O2 after 2 years of storage at 23° C.” value ([4]; pH 5.5) was 31.7%.
